Assay: Stability test: storage at 50° C. in tightly sealed glass vial, HPLC purity
Assay type: physicochemical
Protocol: As used herein, the term “decomposition degree” is defined as a value obtained by subtracting a […] when the stability test is performed for a certain period of time under the following conditions. The purity can be determined by HPLC. A higher decomposition degree means that the decomposition progressed and the purity decreased.
(§1) • Temperature: 50° C.; • Storage conditions: 20 mg of crystal is placed in a glass vial and stored in a tightly sealed state; (HPLC Conditions) • Column: YMC-Triart C18, 150×4.6 mm I.D. (manufactured by YMC); • Eluent: 5 mM triethylammonium acetate (pH 7.0) containing 80 vol % acetonitrile; and • Detection method: detection by UV 280 nm.
as §1, with “each of crystals A to C or amorphous form was” for “crystal is”, “state; and • Sampling time: after 1, 2, 3, 4, 6, and 20 (days), each specimen was sampled and subjected to HPLC analysis;” for “state;”, “YMC)” for “YMC);”
The leftmost column in the table indicates the number of elapsed days, and the column “Example 1 (Crystal A)” indicates the HPLC purity of the crystal A of the 5-methylcytosine-type bridged nucleoside amidite obtained in Example 1 (R^1=a benzamido group, R^2=a methyl group, R^3=a dimethoxytrityl group) after the corresponding number of elapsed days, and the column “Example 2 (crystal B)” indicates the HPLC purity of the crystal B of the 5-methylcytosine-type bridged nucleoside amidite obtained in Example 2 (R^1=a benzamido group, R^2=a methyl group, R^3=a dimethoxytrityl group) after the corresponding number of elapsed days, and the column “Example 3 (Crystal C) indicates the HPLC purity of the crystal C of 5-methylcytosine-type bridged nucleoside amidite obtained in Example 3 (R^1=a benzamido group, R^2=a methyl group, R^3=a dimethoxytrityl group) after the corresponding number of elapsed days, and the column “Control” indicates the HPLC purity of the amorphous form used as a control after the corresponding number of elapsed days. In the table, the cells marked by “-” indicate that no measurement was performed.

[1] = HPLC purity on day 0 minus HPLC purity after 20 days at 50° C.
[2] = after 1 day at 50° C., sealed glass vial
[3] = after 2 days at 50° C., sealed glass vial
[4] = after 3 days at 50° C., sealed glass vial
[5] = after 6 days at 50° C., sealed glass vial
[6] = after 20 days at 50° C., sealed glass vial
[7] = day 0 (start of stability test at 50° C.)
[8] = after 4 days at 50° C., sealed glass vial

Question: For COc1ccc(C(OCC23COC(C(n4cc(C)c(NC(=O)c5ccccc5)nc4=O)O2)C3OP(OCCC#N)N(C(C)C)C(C)C)(c2ccccc2)c2ccc(OC)cc2)cc1 (centres unmarked) [Control, N^4-benzoyl-5′-O-(4,4′-dimethoxytrityl)-2′-O-4′-C-methylene-5-methylcytidine-3′-O—[O-(2-cyanoethyl)-N,N-diisopropylphosphoramidite], reference compound], which “Decomposition Degree” value [1] is on record?
Answer: The value was 6.6 Δ %.

Question: And the HPLC purity [2]?
Answer: The HPLC purity was 98.2%.

Question: And the HPLC purity [3]?
Answer: The HPLC purity was 97.9%.

Question: What about the HPLC purity [4] of the same compound?
Answer: Its HPLC purity is 97.9%.

Question: What about the HPLC purity [5] of the same compound?
Answer: The HPLC purity was 96.9%.

Question: What about the HPLC purity [6] of the same compound?
Answer: The HPLC purity was 92.1%.

Question: And the HPLC purity [7]?
Answer: Its HPLC purity is 98.7%.

Question: And the Decomposition Degree (stored at 50° C. for 20 days, in HPLC purity)?
Answer: Its Decomposition Degree is 6.6%.

Question: Which “Decomposition Degree” value [1] does the source give for COc1ccc(C(OCC23COC(C(n4cc(C)c(NC(=O)c5ccccc5)nc4=O)O2)C3OP(OCCC#N)N(C(C)C)C(C)C)(c2ccccc2)c2ccc(OC)cc2)cc1 (centres unmarked) [Example 1, N^4-benzoyl-5′-O-(4,4′-dimethoxytrityl)-2′-O-4′-C-methylene-5-methylcytidine-3′-O—[O-(2-cyanoethyl)-N,N-diisopropylphosphoramidite]] here?
Answer: The value was 0.7 Δ %.

Question: And the HPLC purity [2]?
Answer: The HPLC purity was 98.4%.

Question: And the HPLC purity [3]?
Answer: Its HPLC purity is 98.1%.

Question: And the HPLC purity [4]?
Answer: The HPLC purity was 98.3%.

Question: And the HPLC purity [5]?
Answer: Its HPLC purity is 98.1%.

Question: What about the HPLC purity [6] of the same compound?
Answer: The HPLC purity was 98.1%.

Question: What about the HPLC purity [7] of the same compound?
Answer: Its HPLC purity is 98.8%.

Question: Which “Decomposition Degree” value [1] does the source give for COc1ccc(C(OCC23COC(C(n4cc(C)c(NC(=O)c5ccccc5)nc4=O)O2)C3OP(OCCC#N)N(C(C)C)C(C)C)(c2ccccc2)c2ccc(OC)cc2)cc1 (centres unmarked) [Example 2, N^4-benzoyl-5′-O-(4,4′-dimethoxytrityl)-2′-O-4′-C-methylene-5-methylcytidine-3′-O—[O-(2-cyanoethyl)-N,N-diisopropylphosphoramidite]] here?
Answer: Its value is 0.4 Δ %.

Question: And the HPLC purity [2]?
Answer: The HPLC purity was 98.7%.

Question: And the HPLC purity [3]?
Answer: Its HPLC purity is 98.6%.

Question: And the HPLC purity [8]?
Answer: The HPLC purity was 98.6%.

Question: And the HPLC purity [5]?
Answer: Its HPLC purity is 98.5%.

Question: And the HPLC purity [6]?
Answer: Its HPLC purity is 98.3%.

Question: What about the HPLC purity [7] of the same compound?
Answer: The HPLC purity was 98.7%.

Question: For COc1ccc(C(OCC23COC(C(n4cc(C)c(NC(=O)c5ccccc5)nc4=O)O2)C3OP(OCCC#N)N(C(C)C)C(C)C)(c2ccccc2)c2ccc(OC)cc2)cc1 (centres unmarked) [Example 3, N^4-benzoyl-5′-O-(4,4′-dimethoxytrityl)-2′-O-4′-C-methylene-5-methylcytidine-3′-O—[O-(2-cyanoethyl)-N,N-diisopropylphosphoramidite]], which “Decomposition Degree” value [1] is on record?
Answer: The value was 0.5 Δ %.

Question: What about the HPLC purity [2] of the same compound?
Answer: The HPLC purity was 98.7%.

Question: What about the HPLC purity [3] of the same compound?
Answer: Its HPLC purity is 98.6%.

Question: And the HPLC purity [8]?
Answer: The HPLC purity was 98.5%.

Question: And the HPLC purity [5]?
Answer: The HPLC purity was 98.5%.

Question: What about the HPLC purity [6] of the same compound?
Answer: Its HPLC purity is 98.1%.

Question: And the HPLC purity [7]?
Answer: Its HPLC purity is 98.6%.

— US12662507B2, “Cytosine-type bridged nucleoside amidite crystals and method for producing same” (Yamasa Corporation, priority 2020, dated 2026)
